pIC50: −log10 of the molar value.
Experiments:
[1] = molecular target: T1, Amine oxidase [flavin-containing] B (Homo sapiens, UniProt P27338)
T1 sequence (P27338 whole entry): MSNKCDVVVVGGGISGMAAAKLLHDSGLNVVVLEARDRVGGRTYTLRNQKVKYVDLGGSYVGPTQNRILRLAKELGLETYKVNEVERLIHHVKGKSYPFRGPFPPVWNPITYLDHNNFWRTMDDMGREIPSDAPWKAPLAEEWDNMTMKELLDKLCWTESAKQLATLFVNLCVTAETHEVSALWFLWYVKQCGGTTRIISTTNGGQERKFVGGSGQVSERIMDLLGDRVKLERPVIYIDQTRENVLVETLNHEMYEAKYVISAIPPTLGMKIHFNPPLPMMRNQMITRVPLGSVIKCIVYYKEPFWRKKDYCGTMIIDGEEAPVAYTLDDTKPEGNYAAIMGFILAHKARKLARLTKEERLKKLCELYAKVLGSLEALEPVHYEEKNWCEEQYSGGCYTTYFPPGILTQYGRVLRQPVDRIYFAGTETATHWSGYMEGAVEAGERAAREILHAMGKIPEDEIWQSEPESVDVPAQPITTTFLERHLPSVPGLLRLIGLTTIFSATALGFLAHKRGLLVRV

[2] = molecular target: T2, Amine oxidase [flavin-containing] A (Homo sapiens, UniProt P21397)
T2 sequence (P21397 whole entry): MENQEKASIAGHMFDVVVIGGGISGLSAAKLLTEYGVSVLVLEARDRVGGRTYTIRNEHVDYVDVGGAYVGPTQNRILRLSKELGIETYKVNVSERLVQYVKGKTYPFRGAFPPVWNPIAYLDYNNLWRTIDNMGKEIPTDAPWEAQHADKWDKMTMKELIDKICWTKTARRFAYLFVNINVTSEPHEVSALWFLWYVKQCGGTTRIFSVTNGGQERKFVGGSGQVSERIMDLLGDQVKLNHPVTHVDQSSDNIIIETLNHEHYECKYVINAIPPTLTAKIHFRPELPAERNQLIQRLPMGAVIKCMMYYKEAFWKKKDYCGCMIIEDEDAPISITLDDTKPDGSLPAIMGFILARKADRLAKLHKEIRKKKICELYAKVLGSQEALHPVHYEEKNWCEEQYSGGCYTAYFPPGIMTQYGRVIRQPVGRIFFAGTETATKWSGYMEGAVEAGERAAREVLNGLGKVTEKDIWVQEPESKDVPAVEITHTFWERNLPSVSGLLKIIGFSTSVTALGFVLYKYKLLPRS

[3] = Effect on H2O2 scavenging activity of the compound up to 50 uM after 1.5 hrs by Amplex red/horseradish peroxidase detection method; format: physicochemical
[4] = molecular target: T1, Amine oxidase [flavin-containing] B; settings: 0.5 h, read-out: INH
[5] = molecular target: T1, Amine oxidase [flavin-containing] B; assay: Reversible inhibition of recombinant human MAOB using benzylamine as substrate at 2 uM measured after 3 times washout of drug by Amplex red based spectrophotometric analysis
[6] = Effect on H2O2 scavenging activity of the compound after 1.5 hrs by Amplex red/horseradish peroxidase detection method; format: physicochemical

| pIC50 [1] | pIC50 [2] | Activity [3] | inhibition at 2 µM [4] | inhibition (INH) [5] | Compound | Activity [6] |
| --- | --- | --- | --- | --- | --- | --- |
| 7.16 | < 4.00 | – | – | – | COc1ccc(C(=O)/C=C/c2ccccc2Cl)cc1 | – |
| 7.25 | < 4.00 | Not Active | > 80% | Active | COc1ccc(C(=O)/C=C/c2ccccc2F)cc1 | – |
| 5.86 | < 4.00 | – | – | – | COc1ccc(C(=O)/C=C/c2cccc(OC)c2)cc1 | – |
| 6.38 | < 4.00 | – | – | – | COc1ccc(C(=O)/C=C/c2ccccc2OC)cc1 | – |
| 6.84 | < 4.00 | – | – | – | COc1ccc(C(=O)/C=C/c2cccc(C(F)(F)F)c2)cc1 | – |
| 6.10 | < 4.00 | – | – | – | COc1cccc(C(=O)/C=C/c2ccccc2)c1 | – |
| < 5.00 | < 4.00 | – | – | – | COc1ccc(/C=C/C(=O)c2ccc(OC)cc2)cc1 [4,4'-DIMETHOXYCHALCONE] | – |
| 6.33 | < 4.00 | – | – | – | COc1ccc(C(=O)/C=C/c2ccccc2)cc1 [4'-METHOXYCHALCONE] | – |
| 7.80 | < 4.00 | Not Active | > 80% | Active | COc1ccc(C(=O)/C=C/c2ccccc2C(F)(F)F)cc1 | – |
| 6.70 | < 4.00 | – | – | – | COc1ccc(C(=O)/C=C/c2ccc(C(F)(F)F)cc2)cc1 | – |

The next lines start with the compound.

| Compound | pIC50 [1] | pIC50 [2] | Activity [3] | inhibition at 2 µM [4] | inhibition (INH) [5] | Activity [6] |
| --- | --- | --- | --- | --- | --- | --- |
| O=C(/C=C/c1ccccc1C(F)(F)F)Nc1cccc(O)c1 | 5.22 | < 4.00 | – | – | – | – |
| O=C(/C=C/c1ccc(C(F)(F)F)cc1)Nc1ccc(F)cc1 | 6.65 | < 4.00 | – | – | – | – |
| COc1ccccc1/C=C/C(=O)c1ccc(O)cc1 | 6.20 | < 4.00 | – | – | – | – |
| C[C@H](NCc1ccc(OCc2cccc(F)c2)cc1)C(N)=O [SAFINAMIDE] | – | – | – | – | Not Active | – |
| O=C(/C=C/c1ccccc1C(F)(F)F)Nc1ccc(O)cc1 | < 5.00 | 5.04 | – | – | – | – |
| O=C(O[C@@H]1Cc2c(O)cc(O)cc2O[C@@H]1c1cc(O)c(O)c(O)c1)c1cc(O)c(O)c(O)c1 [EPIGALOCATECHIN GALLATE] | – | – | – | – | – | Dose-dependent effect |
| COc1ccc(NC(=O)/C=C/c2ccccc2C(F)(F)F)cc1 | < 5.00 | < 4.00 | – | – | – | – |
| COc1cccc(C(=O)/C=C/c2ccccc2C(F)(F)F)c1 | 5.67 | < 4.00 | – | – | – | – |
| O=C(/C=C/c1ccccc1C(F)(F)F)c1ccc(O)cc1 | 7.24 | < 4.00 | – | – | – | – |
| COc1ccccc1C(=O)/C=C/c1ccccc1 | < 5.00 | < 4.00 | – | – | – | – |
| COc1ccccc1C(=O)/C=C/c1ccccc1C(F)(F)F | 6.60 | < 4.00 | – | – | – | – |
| O=C(/C=C/c1ccccc1Cl)Nc1ccccc1 | 5.55 | < 4.00 | – | – | – | – |
| O=C(/C=C/c1ccccc1C(F)(F)F)Nc1ccccc1 | 5.08 | < 4.00 | – | – | – | – |
| O=C(/C=C/c1ccc(C(F)(F)F)cc1)Nc1ccccc1F | 6.24 | < 4.00 | – | – | – | – |
| O=C(/C=C/c1ccccc1Cl)Nc1ccc(O)cc1 | < 5.00 | 4.78 | – | – | – | – |
| COc1ccc(OC(=O)/C=C/c2ccccc2Cl)cc1 | 6.03 | < 4.00 | – | – | – | – |
| O=C(/C=C/c1ccccc1Cl)Nc1cccc(O)c1 | 5.28 | < 4.00 | – | – | – | – |
| COc1ccc(NC(=O)/C=C/c2ccccc2Cl)cc1 | < 5.00 | < 4.00 | – | – | – | – |
| O=C(/C=C/c1cccc(C(F)(F)F)c1)Nc1cccc(F)c1 | 5.31 | < 4.00 | – | – | – | – |
| O=C(/C=C/c1ccc(C(F)(F)F)cc1)Nc1cccc(F)c1 | 6.55 | < 4.00 | – | – | – | – |
| O=C(/C=C/c1ccccc1C(F)(F)F)Nc1cccc(F)c1 | 5.47 | < 4.00 | – | – | – | – |
| O=C(/C=C/c1ccccc1C(F)(F)F)Oc1ccccc1 | 5.23 | < 4.00 | – | – | – | – |
| COc1ccc(OC(=O)/C=C/c2ccccc2C(F)(F)F)cc1 | 5.59 | < 4.00 | – | – | – | – |
